Data: paper PMC5549488, “Synthesis, Characterization, Cytotoxic Activity, and Interactions with CT-DNA and BSA of Cationic Ruthenium(II) Complexes Containing Dppm and Quinoline Carboxylates” (Bioinorganic Chemistry and Applications, 2017)

Target: T1, bovine serum albumin (BSA) (Bos taurus, UniProt P02769)
T1 construct: gene ALB
Test: tryptophan fluorescence quenching (Stern-Volmer, double-log plot), […] K; Kb given
Assay type: binding

T1 sequence (P02769 25-607): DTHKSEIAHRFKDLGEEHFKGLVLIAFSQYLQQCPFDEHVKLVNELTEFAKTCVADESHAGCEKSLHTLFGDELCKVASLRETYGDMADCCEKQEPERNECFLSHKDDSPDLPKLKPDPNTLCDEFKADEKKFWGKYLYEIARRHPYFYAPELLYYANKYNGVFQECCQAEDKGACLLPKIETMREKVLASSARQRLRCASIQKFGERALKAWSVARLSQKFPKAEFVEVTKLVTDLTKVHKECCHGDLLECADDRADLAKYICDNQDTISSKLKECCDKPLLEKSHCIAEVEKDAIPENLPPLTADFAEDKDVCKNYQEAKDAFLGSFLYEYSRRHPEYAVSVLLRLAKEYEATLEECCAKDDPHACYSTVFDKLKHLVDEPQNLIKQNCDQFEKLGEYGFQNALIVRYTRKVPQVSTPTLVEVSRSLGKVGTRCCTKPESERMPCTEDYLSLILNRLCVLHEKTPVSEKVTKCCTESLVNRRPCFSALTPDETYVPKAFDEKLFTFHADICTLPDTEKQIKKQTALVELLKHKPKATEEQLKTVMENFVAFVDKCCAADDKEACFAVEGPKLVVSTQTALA

Substance | K b / (×10^5)
cis-[Ru(kynu)(dppm)2]PF6 [compound 2] | 3.25 (×10^5) (Kb)
cis-[Ru(quin)(dppm)2]PF6 [compound 1] | 4.77 (×10^5) (Kb)
